Measured values: ChEMBL document CHEMBL1149804, “Bioactivity of novel transition metal complexes of N'-[(4-methoxy)thiobenzoyl]benzoic acid hydrazide” (Eur J Med Chem, 2008)

Assays:
[1] = test system: HT-29; assay: Antiproliferative activity against human HT29 cells after 48 hrs by MTT assay; format: functional, cell-based; settings: HT-29, 48 h
[2] = Inhibition of human recombinant N-myristoyltransferase

IC50 [1]: 90.9 µM | IC50 [2]: 3200 µM
SMILES: COc1ccc(C(=S)NNC(=O)c2ccccc2)cc1
